Test results reported in patent publication US12077586B2, “Bispecific antibodies for use in the treatment of hematological malignancies” (LAVA THERAPEUTICS N.V., priority 2018, dated 2024).

How the values were obtained:
Jeko-1 cells [1] = experiment: Cytotoxicity assay with Vγ9Vδ2-T cell lines, Jeko-1 target cells; format: cell-based, human
Method: (§1) Target cells were then cocultured overnight with Vγ9Vδ2-T cell lines in a 1:1 ratio unless otherwise indicated. Viability was measured using Mitotracker Orange (25-minute incubation at 37° C., M7510) and To-pro-3 (10-minute incubation at room temperature; T3605, both Thermo Fisher Scientific).
(§2) If indicated, target cells were pretreated with 25 μM mevastatin (M2537, Sigma-Aldrich), 50 μM aminobisphosphonates (pamidronate, #12J08RD, TEVA Pharmachemie, Haarlem, the Netherlands) or medium control for 2 hours.
(§3) If indicated, cells were cultured with the indicated concentrations of all-trans retinoic acid (ATRA; R2625, Sigma-Aldrich) for 48 hours unless otherwise indicated. ATRA was washed away prior to cytotoxicity assays.
If indicated, target cells were pre-incubated with 5 μg/mL anti-CD1d mAb (clone 51.1, 350304, Biolegend, San Diego, CA, USA) and/or 10 μg/mL anti-CD277 mAb (clone 103.2, Creative Biolabs, Shirley, NY, USA) for 10 minutes.

[2] = test system: CD1d expression on Jeko-1 cells; experiment: CD1d expression on Jeko-1 cells after ATRA treatment; format: cell-based, human; conditions: 48 hours
Method: (§4) (A) CD1d expression on Jeko-1 cells after 48 hours of ATRA treatment. (B) Time-curve of CD1d expression upon ATRA treatment (n=3). (C) Viability of Jeko-1 cells after 48 hours of treatment with 100 nM ATRA (n=4). (D) Lysis of Jeko-1 cells after pretreatment with ATRA. […] (E) CD1d expression on primary CLL cells after 48 hours of different concentrations of ATRA or medium control treatment (n=17). (F) Lysis of CLL cells after pretreatment with ATRA. […] Specific lysis is calculated by correcting for background cell death in condition without Vγ9Vδ2-T cells. Data represent mean and SD. *P<0.05, ***P<0.001, ****P<0.0001. (C: paired t-test; D, F: two-way ANOVA followed by Sidak's post hoc test comparing control vs ATRA-treated for each concentration; E: Friedman test followed by Dunnett's post hoc test compared to medium control).
(§5) Cells were stained with antibodies and viability dyes (Table 4) and measured on an LSR Fortessa or FACS Canto cytometer (BD Biosciences, Franklin Lakes, NJ, USA). Samples were analyzed with Flowjo MacV10. Cytofix/Cytoperm reagent was used for detection of intracellular cytokines (BD Biosciences). Relative CD1d expression is defined as geometric MFI (CD1d stained)—geometric MFI (fluorescence minus one).
If indicated, cells were cultured with the indicated concentrations of all-trans retinoic acid (ATRA; R2625, Sigma-Aldrich) for 48 hours unless otherwise indicated. […]

[3] = test system: CD1d expression on primary CLL cells; experiment: CD1d expression on primary CLL cells after ATRA treatment; format: cell-based, human; conditions: for Increase of CD1d levels: primary CLL cells, 48 hours
Method: as §4, §5, §3

Jeko-1 cells [4] = experiment: Viability of Jeko-1 cells after ATRA treatment; format: cell-based, human; conditions: 100 nM ATRA, 48 hours
Method: as §4, §3

primary CLL cells = experiment: Cytotoxicity assay with Vγ9Vδ2-T cell lines, primary CLL cells; format: cell-based
Method: (§6) (A) Specific lysis of Jeko-1 cell line (n=3). (B) CD1d expression on WT or CD1d-transfected MM.1s cell line (blank histogram: CD1d-stained, grey filled histogram: fluorescence minus one control). (C) Specific lysis of WT or CD1d-transfected MM.1s cell line (n=4). (D) Specific lysis of primary CLL cells with negative, low or high CD1d expression (n=4 per group). Specific lysis is calculated by correcting for background cell death in condition without Vγ9Vδ2-T cells. Data represent mean and SD. *P<0.05, **P<0.01, ****P<0.0001. (A: one-way ANOVA followed by Dunnett's post hoc test compared to untreated condition, C: two-way ANOVA followed by Sidak's post hoc test comparing WT vs CD1d for each concentration, D: two-way ANOVA followed by Tukey's post hoc test comparing each CD1d group for each concentration).
as §1, §3

[5] = test system: CD1d-transfected MM.1s cells; experiment: Cytotoxicity assay with Vγ9Vδ2-T cell lines, CD1d-transfected MM.1s; format: cell-based, human; conditions: overnight coculture with Vγ9Vδ2-T cells
Method: as §6, §1

healthy B cells = experiment: Mixed coculture cytotoxicity (Vγ9Vδ2-T cell: B cell: CLL cell 1:1:1), healthy B cells; format: cell-based, human; conditions: 6 hours
Method: (§7) (A) Specific lysis of Jeko-1 cells after pretreatment with mevastatin or pamidronate. […] (B) CD1d expression on B cells from healthy donor PBMCs. (C) Specific lysis of healthy B cells and CLL cells after pretreatment with ABP. Healthy B cells (isolated from healthy donor PBMCs, CFSE-labeled) and CLL cells (isolated from CLL PBMCs, CTV-labeled) were mixed in 1:1 ratio and pretreated with 50 μM pamidronate or medium control for 2 hours. […] (D) Specific lysis of Jeko-1 cells after blockade of CD1d or CD277. Jeko-1 cells were incubated with an anti-CD1d antibody (5 μg/mL), anti-CD277 antibody (10 μg/mL), anti-CD1d and anti-CD277 antibodies, or medium control for 10 minutes. […] Specific lysis is calculated by correcting for background cell death in condition without Vγ9Vδ2-T cells. Data represent mean and SD. *P<0.05, **P<0.01, ***P<0.001. (A: two-way ANOVA followed by Dunnett's post hoc test comparing control vs each pretreatment; C: two-way ANOVA followed by Sidak's post hoc test comparing untreated vs ABP pre-treated D: one-way ANOVA followed by Dunnett's post hoc test compared to medium control).
as §2
(§8) Healthy B cells express low levels of CD1d (FIG. 12B). […]

[6] = test system: wildtype CD1d-negative MM.1s cells; experiment: Cytotoxicity assay with Vγ9Vδ2-T cell lines, wildtype MM.1s; format: cell-based, human; conditions: overnight coculture with Vγ9Vδ2-T cells
Method: as §6, §1

Vγ9Vδ2-T cells [7] = experiment: Cytokine and degranulation assay, Vγ9Vδ2-T cells cocultured with Jeko-1 cells; format: cell-based, human; conditions: bispecific antibody alone, without target cells
autologous CLL cells = experiment: Cytotoxicity assay with patient-derived Vγ9Vδ2-T cells against autologous CLL cells; format: cell-based, human; conditions: 10 nM; CD3:PBMC 5:1 or 20:1
Excerpt: (§9) (A-C) Activation of and cytokine production and degranulation by patient-derived Vγ9Vδ2-T cells. […] (D) Lysis of primary CLL cells by autologous Vγ9Vδ2-T cells. […] Live CLL cells were quantified by flow cytometry using counting beads (n=5). (E) Expansion of patient-derived Vγ9Vδ2-T cells. […] Percentage Vγ9Vδ2-T cells after 1 week (n=8). Data are presented as mean and SD. *P<0.05, **P<0.01, ***P<0.001. (A-D: one-way ANOVA followed by Dunnett's post hoc test compared to medium control; E: paired t-test).
For cytotoxicity assays performed with patient-derived Vγ9Vδ2-T cells, CD3^+ cells were enriched from patient PBMC by magnetic bead selection (130-050-101, Miltenyi Biotec; ≥90% purity). […] Viable cells were then quantified by fluorescence-labeled antibodies and viability dyes in combination with counting beads (01-1234-42, Thermo Fisher Scientific).

[8] = test system: CD1d-transfected MM.1s cells; experiment: VHH binding to CD1d-transfected MM.1s cells (flow cytometry); design: species or system human; conditions: read-out: apparent Kd
[9] = test system: CLL patient-derived Vγ9Vδ2-T cells; experiment: Proliferation assay of CLL patient-derived Vγ9Vδ2-T cells; format: cell-based, human; conditions: 1 week
Excerpt: as §9
For proliferation assays, PBMCs from CL patients were enriched for T cells by depletion of CD19^+ CLL cells. After attachment of irradiated (30Gy) […] fibroblasts to culture plates, T cell enriched PBMC (≤10% CD19^+) and purified CD19^+ (≥90% CD19^+) PBMC fractions were added in a 2:1 (CD19:CD19^+) ratio.

CLL cells = experiment: Mixed coculture cytotoxicity (Vγ9Vδ2-T cell: B cell: CLL cell 1:1:1), CLL cells; format: cell-based, human; conditions: 6 hours
Method: as §7, §2, §8

[10] = test system: CLL patient-derived Vγ9Vδ2-T cells; experiment: Activation, cytokine and degranulation assay with autologous CLL patient-derived Vγ9Vδ2-T cells; format: cell-based, human
Excerpt: as §9

Vγ9Vδ2-T cells [11] = conditions: previous work; cited from earlier work
Vγ9 chain = target: T1, Vγ9 chain (Homo sapiens, UniProt Q99603, T7A); conditions: Mean Fluorescence Index class; γδ T-cells expressing Vγ9 chain paired with non Vδ2 chain; cited from earlier work
T1 construct: host or cells: γδ T-cells expressing a Vγ9 chain paired with a non-Vδ2 chain

[12] = test system: γδ T-cells not expressing any of the Vγ9Vδ2 TCR chains; conditions: Mean Fluorescence Index class; cells not expressing any Vγ9Vδ2 TCR chain; cited from earlier work
Vδ2 chain = target: T2, Vδ2 chain (Homo sapiens, UniProt A0JD36); conditions: Mean Fluorescence Index class; γδ T-cells expressing Vδ2 chain paired with non Vγ9 chain; cited from earlier work
T2 construct: host or cells: γδ T-cells expressing a Vδ2 chain paired with a non-Vγ9 chain

complete Vγ9Vδ2 TCR = target: T3, complete Vγ9Vδ2 TCR (Homo sapiens, UniProt A0JD36+Q99603, T7A); conditions: Mean Fluorescence Index class; cited from earlier work
T3 construct: host or cells: γδ T-cells expressing the complete Vγ9Vδ2 TCR

[13] = 10 pM 1D7-5C8, with ABP (50 μM pamidronate pretreatment)
[14] = 100 nM, overnight coculture with Vγ9Vδ2-T cells 1:1

T2 sequence (A0JD36 with tags, fused parts or gaps): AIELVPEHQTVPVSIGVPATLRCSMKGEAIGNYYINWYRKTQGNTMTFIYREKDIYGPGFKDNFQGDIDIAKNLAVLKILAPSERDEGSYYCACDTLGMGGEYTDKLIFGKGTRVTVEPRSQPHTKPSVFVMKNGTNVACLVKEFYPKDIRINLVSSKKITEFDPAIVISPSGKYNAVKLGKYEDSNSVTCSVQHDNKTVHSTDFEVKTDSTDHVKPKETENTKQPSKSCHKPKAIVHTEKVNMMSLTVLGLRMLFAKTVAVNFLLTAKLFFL
T2 sequence (P07766 23-207 partner): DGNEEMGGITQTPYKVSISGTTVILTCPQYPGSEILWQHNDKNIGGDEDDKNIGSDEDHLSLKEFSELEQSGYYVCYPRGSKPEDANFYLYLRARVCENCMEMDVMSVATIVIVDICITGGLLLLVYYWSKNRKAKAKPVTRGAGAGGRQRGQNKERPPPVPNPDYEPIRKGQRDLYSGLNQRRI
T2 sequence (P09693 23-182 partner): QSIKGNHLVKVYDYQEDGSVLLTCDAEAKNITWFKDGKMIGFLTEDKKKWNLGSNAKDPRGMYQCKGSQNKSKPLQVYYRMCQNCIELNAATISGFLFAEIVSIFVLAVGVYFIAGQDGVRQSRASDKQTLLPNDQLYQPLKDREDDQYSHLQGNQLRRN
T2 sequence (P04234 22-171 partner): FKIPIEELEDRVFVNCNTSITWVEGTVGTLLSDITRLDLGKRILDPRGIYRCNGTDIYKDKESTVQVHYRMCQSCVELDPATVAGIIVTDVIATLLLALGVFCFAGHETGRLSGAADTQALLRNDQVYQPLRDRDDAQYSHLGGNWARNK
T2 sequence (P20963 22-164 partner): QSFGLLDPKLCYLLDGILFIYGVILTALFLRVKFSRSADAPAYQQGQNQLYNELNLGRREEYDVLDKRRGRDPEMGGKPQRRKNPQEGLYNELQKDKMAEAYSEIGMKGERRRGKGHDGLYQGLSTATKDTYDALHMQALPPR
T1 sequence (Q99603 with tags, fused parts or gaps T7A limits assumed): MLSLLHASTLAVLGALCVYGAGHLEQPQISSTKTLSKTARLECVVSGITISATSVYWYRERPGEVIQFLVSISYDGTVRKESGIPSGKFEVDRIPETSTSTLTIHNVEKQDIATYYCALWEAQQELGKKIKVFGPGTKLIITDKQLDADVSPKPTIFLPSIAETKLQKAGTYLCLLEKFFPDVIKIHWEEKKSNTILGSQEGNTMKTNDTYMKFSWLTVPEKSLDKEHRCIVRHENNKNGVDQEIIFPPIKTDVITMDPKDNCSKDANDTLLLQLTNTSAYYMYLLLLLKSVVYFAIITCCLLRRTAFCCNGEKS
T1 sequence (P07766 23-207 partner): as the sequence (P07766 23-207 partner) above
T1 sequence (P09693 23-182 partner): as the sequence (P09693 23-182 partner) above
T1 sequence (P04234 22-171 partner): as the sequence (P04234 22-171 partner) above
T1 sequence (P20963 22-164 partner): as the sequence (P20963 22-164 partner) above
T3 sequence (Q99603 with tags, fused parts or gaps T7A limits assumed): as the sequence (Q99603 with tags, fused parts or gaps T7A limits assumed) above
T3 sequence (A0JD36 with tags, fused parts or gaps, stated change not applied): as the sequence (A0JD36 with tags, fused parts or gaps) above
T3 sequence (P07766 23-207 partner): as the sequence (P07766 23-207 partner) above
T3 sequence (P09693 23-182 partner): as the sequence (P09693 23-182 partner) above
T3 sequence (P04234 22-171 partner): as the sequence (P04234 22-171 partner) above
T3 sequence (P20963 22-164 partner): as the sequence (P20963 22-164 partner) above

For `CC1=C(/C=C/C(C)=C/C=C/C(C)=C/C(=O)O)C(C)(C)CCC1` [ATRA, all-trans retinoic acid], the “Sensitivity of ATRA-pretreated Jeko-1 cells to 1D7-5C8-induced cell death” value (Jeko-1 cells [1]; 100 nM ATRA 48 hours, then Vγ9Vδ2-T cells 1:2 plus 1D7-5C8) was “more sensitive to bispecific antibody 1D7-5C8-induced cell death than control Jeko-1 cells”, the “ATRA concentration at which upregulation of CD1d expression was detectable” value [2] was 10 pM and the “CD1d relative MFI” value ([3]; primary CLL cells after 100 nM ATRA) was 504.6±366.0. For the same molecule, the “Increase of CD1d levels” value ([3]; 1 nM ATRA) was 2.6 fold, the “Increase of CD1d levels” value ([3]; 100 nM ATRA, on average) was 3.7 fold and the “Direct induction of cell death” value (Jeko-1 cells [4]) was “did not induce cell death directly”. For the same molecule, the “Sensitivity of ATRA-pretreated primary CLL cells to 1D7-5C8-mediated cell death” value (primary CLL cells; 100 nM ATRA 48 hours, then Vγ9Vδ2-T cells 1:1 plus 1D7-5C8) was “did sensitize primary CLL cells to bispecific antibody 1D7-5C8-mediated cell death”.

In the case of “1D7-5C8: CD1d-Vδ2 bispecific VHH: 1D7 (N-terminal) joined to 5C8 (C-terminal) with Gly4Ser-linker, SEQ ID NO: 165”, the “Lysis of Jeko-1 cells” value (Jeko-1 cells [1]; 10 pM 1D7-5C8 with CD1d-blocking antibody (5 μg/mL)) is reported as 13.7%±1.0, the “Lysis of Jeko-1 cells” value (Jeko-1 cells [1]; 10 pM 1D7-5C8 with CD1d and CD277 simultaneously blocked) is reported as 9.4%±0.8 and the “Lysis of Jeko-1 cells” value (Jeko-1 cells [1]; 10 nM, overnight coculture with Vγ9Vδ2-T cells 1:1) is reported as 75.2%±21.0. The “Decline of 1D7-5C8-induced lysis” value (Jeko-1 cells [1]; CD1d and CD277 simultaneously blocked) was 20.2%, the Target cell lysis (Jeko-1 cells [1]; in the absence of Vγ9Vδ2-T cells) was “did not induce target cell lysis” and the “Decrease of 1D7-5C8-induced lysis” value (Jeko-1 cells [1]; with CD1d-blocking antibody, on average) was 15.9%. The “Lysis of CD1d+ MM.1s cells” value [5] was “clearly increased lysis”, the “Lysis of healthy B cells” value (healthy B cells; 10 pM 1D7-5C8, no ABP) was 4.8%±0.6 and the “Lysis of healthy B cells” value (healthy B cells; [13]) was 5.4%±4.5. The “Lysis of wildtype MM.1s cells” value [6] was “had no effect on lysis of the wildtype cells”, the “IFN-γ production and degranulation of Vγ9Vδ2-T cells” value (Vγ9Vδ2-T cells [7]) was “did not produce IFN-γ and hardly degranulated” and the “Lysis of autologous CLL cells by patient-derived Vγ9Vδ2-T cells” value (autologous CLL cells) was “enables autologous tumor lysis at relatively low E:T ratios”. The Kd [8] was 0.4 nM, the “Percentage of Vγ9Vδ2-T cells within the T cell fraction” value ([9]; IL-2 50 IU/mL and 50 nM 1D7-5C8, baseline 1.2%) was 5.6%±4.7 and the “Percentage of Vγ9Vδ2-T cells with versus without antibody” value ([9]; IL-2 50 IU/mL, 50 nM 1D7-5C8) was 3.1 fold. For the same molecule, the “Lysis of CD1d high CLL cells” value (primary CLL cells; [14]) was 74.5%±19.1, the “Lysis of CD1d low CLL cells” value (primary CLL cells; [14]) was 49.3%±6.6 and the “Lysis of CLL cells” value (CLL cells; 10 pM 1D7-5C8, no ABP) was 19.6%±4.8. The “Lysis of CLL cells” value (CLL cells; [13]) was 25.1%±5.2, the “Upregulation of activation marker CD25 on patient Vγ9Vδ2-T cells” value ([10]; overnight culture of CLL PBMC, 1D7-5C8 50 nM) was 20.8 fold and the “Cytokine production by patient-derived Vγ9Vδ2-T cells” value ([10]; overnight, 50 nM) was “induced production of IFN-γ and TNF-α”. The “Degranulation of patient-derived Vγ9Vδ2-T cells” value ([10]; overnight, 50 nM) was “triggered Vγ9Vδ2-T cell degranulation”.

B1: 5C8: Vγ9Vδ2-specific VHH binding to the Vδ2 chain of the TCR, SEQ ID NO: 149 (protein)
VHH: EVQLVESGGGLVQAGGSLRLSCAASGRPFSNYAMGWFRQAPGKEREFVAAISWSGGSTSYADSVKGRFTISRDNAKNTVYLQMNSPKPEDTAIYYCAAQFSGADYGFGRLGIRGYEYDYWGQGTQVTVSS
modifications: antibody sequence
In the case of B1, the “Inhibition of phosphoantigen-CD277 mediated Vγ9Vδ2-T cell activation” value (Vγ9Vδ2-T cells [11]) is listed as “not effective in inhibiting phosphoantigen-CD277 mediated Vγ9Vδ2-T cell activation”, the “Binding, Vγ9+” value (Vγ9 chain) is listed as “− (“−” indicates a Mean Fluorescence Index (MFI) below 1.5)” and the “Binding, Vγ9Vδ2−” value [12] is listed as “− (“−” indicates a Mean Fluorescence Index (MFI) below 1.5)”. The “Binding, Vδ2+” value (Vδ2 chain) was “++ (“++” indicates an MFI above 20)” and the “Binding, Vγ9Vδ2+” value (complete Vγ9Vδ2 TCR) was “++ (“++” indicates an MFI above 20)”.
